Patent publication US20230255970A1, “COMPOSITIONS AND METHODS FOR TREATING PROLIFERATIVE DISEASES” (The Broad Institute, Inc., priority 2020, published 2023)

Assays:
[1] = system: TC32 human Ewing's family sarcoma cells; experiment: Proliferation assay, TC32 cells; format: cell-based; conditions: 10 μM daily for 72 hours
Excerpt: (§1) YAP1 cell culture and treatments: Eisinger lab: Murine KP230 cells, a Yap1-dependent cancer cell line, were derived from a tumor from the KP mouse model (Kras^G12/D; Trp53^f/fl), as described in Eisinger-Mathason, T. S. K. et al., Proc. Natl. Acad. Sci. U.S.A 112 (2015): E3402-11, which is hereby incorporated by reference in its entirety. STS-109 UPS cells were derived from a human UPS tumor and validated by Rebecca Gladdy, MD (Sinai Health System, Toronto, Ontario, Canada). TC32 cells were a gift from Patrick Grohar, MD, PhD (Children's Hospital of Philadelphia). HT-1080, HCT-116, and HEK293T cells were purchased from ATCC. KP230, HT-1080, and HEK-293T cells were grown in DMEM with 10% FBS, 1% L-glutamine, and 1% penicillin/streptomycin (P/S). STS-109 cells were cultured in DMEM with 20% FBS, 1% L-glutamine, and 1% P/S. TC32 cells were grown in RPMI with 10% FBS, 1% L-glutamine, and 1% P/S. HCT-116 cells were cultured in McCoy's 5A medium with 10% FBS and 1% P/S. All cells were confirmed to be negative for mycoplasma contamination and were maintained in an incubator at 37C with 5% CO2. […]
(§2) NB4A treatment: Cells were treated with 10 μM of each inhibitor or an equivalent volume of DMSO every 24 hours for 3-8 days, and counted with a hemocytometer with trypan blue exclusion daily (KP230, HT-1080, TC32, HCT-116), or every 2 days (STS-109).

[2] = system: HCT-116 colon cancer cells; experiment: Proliferation assay, HCT-116 cells; format: cell-based; conditions: 10 μM daily for 72 hours
Excerpt: as §1, §2

[3] = system: KP230 cells; experiment: qRT-PCR of Yap1 and target genes in KP230 cells; format: cell-based, mouse
Excerpt: as §1, with “(P/S).” for “(P/S). STS-109 cells were cultured in DMEM with 20% FBS, 1% L-glutamine, and 1% P/S. TC32 cells were grown in RPMI with 10% FBS, 1% L-glutamine, and 1% P/S. HCT-116 cells were cultured in McCoy's 5A medium with 10% FBS and 1% P/S. All cells were confirmed to be negative for mycoplasma contamination and were maintained in an incubator at 37C with 5% CO2.”
YAP1-related qRT-PCR: Total RNA from cultured cells was isolated with the QIAGEN RNeasy mini kit, and cDNA was synthesized with the High-Capacity RNA-to-cDNA kit (Life Technologies). qRT-PCR analysis was performed with TaqMan “best coverage” probes on a ViiA7 instrument. […] Relative expression was calculated using the ddCt method.

[4] = system: STK3/MST2 overexpression; experiment: Cell Painting morphological profile matching to STK3/MST2 overexpression; format: cell-based, human
Excerpt: To profile each exogenously expressed gene (or allele therein), the previously developed image-based profiling assay, called Cell Painting was used (see Bray et al., Nat. Protoc. 2016 September; 11(9): 1757-1774). […] In five replicates in 384-well plate format, U2OS cells (human bone osteosarcoma cells), chosen for their flat morphology and previous validation in the assay, were infected with an arrayed ‘reference’ expression library of 323 open reading frame (ORF) constructs of partially characterized functions, a subset of which have been previously described. […]
Using the morphological signature found for YAP1 and TAZ, data mining was performed seeking compounds that effected the same (or opposite) morphology by computationally matching the morphological signature to a public database of small molecule signatures (see Caicedo et al., Nat. Meth. 2017 September; 14(9), 849-63, doi:10.1038/nMeth.4397, incorporated herein by reference). Specifically, the intersection of features in the two datasets was determined, resulting in 605 features (1399 features in the genetic screen, without any feature selection; and 729 features in the compound screen, obtained using the findCorrelation function with a threshold of 0.90 on the original 1,783 dimensional feature set). […]

c1ccc(CNc2ncnc3ccccc23)cc1 [BRD-K43796186, N-benzylquinazolin-4-amine]
proliferation [1]: inhibited the proliferation | proliferation [2]: did not affect the proliferation | transcription of Yap1, its sarcoma target genes (Foxm1, Ccl2, Hbegf, Birc5, Rela) and Amot [3]: did not regulate transcription | Morphological profile correlation with overexpression of STK3/MST2 [4]: −0.49
